In US9358226B2, “Triarylmethane analogs and their use in treating cancers” (Emory University, priority 2007, dated 2016):
Like-named read-outs stand apart in the source and are kept apart here.

What was measured:
HIF2a = HIF2a expression model (quantitative RT-PCR); assay type: cell-based; settings: WM35 PKB cells, 5 micromolar, 24 hours
Description: In this expression model, WM35 PKB cells are exposed to 5 micromolar of test compounds for 24 hours. At the end of this period, cells are harvested for RNA, which is then reverse transcribed into cDNA, and levels of HIF2a message are quantified using quantitative RT-PCR and corrected for a housekeeping RNA message.

T. brucei = assay: Parasitemia in mice injected with T. brucei; assay type: in vivo
Description: In one study, the parasite was T. brucei. Mice were injected with parasites (5,000 parasites/mouse), and injected (s.c) with imipramine blue (1 mg/mice/day) starting from the day the mice were injected with parasites. The parasitemia level in blood was counted on each following day.
The experiment was repeated with IV administration of imipramine blue (100 μg of imipramine blue). […] Accordingly, it is important to find a therapeutic window (where treatment of parasitemia can be effected, without unwanted toxic effects). This therapeutic window is in the range of between about 150 and 250 μg.

[1] = tested on: bloodstream form of T. brucei; assay: Bloodstream form of T. brucei, live cells, overnight treatment; assay type: cell-based; settings: at 500 nm
Description: These and other compounds were tested on live cells.
The experiment was conducted with one million cells of the bloodstream form of T. brucei. After over night treatment with different compounds (at concentrations of 50 and 100 μmolar), cells were counted and plotted with controls.

[2] = tested on: P. falciparum D6 (Chloroquine Sensitive); assay: Malaria model, chloroquine sensitive P. falciparum; assay type: cell-based
Description: (§1) The compounds were tested in a malaria model using both chloroquine sensitive and multidrug resistant P. falciparum. The malaria model was the same as published in JAC Advance Access published online on Jul. 30, 2008, Journal of Antimicrobial Chemotherapy, doi:10.1093/jac/dkn315, the contents of which are hereby incorporated by reference, and the data is summarized in the table below.
(§2) Briefly, the assay involves exposing both chloroquine sensitive and multidrug resistant P. falciparum to the compounds. After one hour of exposure to the highest concentration of the compound, followed by removal of the compound, the growth of all stages of P. falciparum was observed. The reduction in the growth stages was then compared with untreated control parasites. […] The presence of strong inhibition (defined herein as 10% growth) of all parasite stages was evaluated when the parasites were exposed to various concentrations of various compounds.

[3] = tested on: P. falciparum Dd2 (Multidrug Resistant); assay: Malaria model, multidrug resistant P. falciparum; assay type: cell-based
Description: as §1, §2

[4] = tested on: myeloma cells (MM.1S, MM.1R, RPMI8226, and U266); assay: MTT cell viability assay, myeloma cells; assay type: cell-based
Description: (§3) Imipramine blue was obtained from the department of dermatology, Emory University. MTT assays for myeloma cells (MM.1S, MM.1R, RPMI8226, and U266) were used to evaluate the cell viability. AnnexinV staining and cell cycle analysis was done by flow cytometry to assess the level of apoptosis and analyze cell cycle arrest. Western blotting was performed using antibodies to analyze the impact of imipramine blue on various targets. Bone marrow from myeloma patients were obtained with consent from the Winship Cancer Institute.

myeloma cells [5] = assay: AnnexinV staining and cell cycle analysis by flow cytometry; assay type: cell-based
Description: as §3

myeloma cells [6] = assay: Western blotting of myeloma cells; assay type: cell-based
Description: as §3

[7] = tested on: leukemia and lymphoma cell lines; assay: Cell growth inhibition in leukemia and lymphoma cell lines; assay type: cell-based
[8] = tested on: CD38 positive population of primary cells from myeloma patients; assay: Primary cells from myeloma patients, cell killing; assay type: cell-based, human; settings: alone as a single agent or in combination with bortezomib
Description: as §3

[9] = ESR spectrum with superoxide dismutase; settings: room temperature ESR, conditions as in Li et al.
Description: Li used ESR to confirm the production of NADPH-dependent.O2—by isolated endosomes (Li et al., Molecular and Cellular Biology, January 2006, p. 140-154, 26(1):140-154 (2006)). ESR assays were conducted at room temperature using a Bruker model EMX ESR spectrometer (Bruker). Vesicular fractions from each sample were mixed with the spin trap, 50 mM 5,5-dimethyl-1-pyrroline N-oxide (DMPO), in a total volume of 500 μl of PBS, pH 7.4. This solution contained iminodiacetic acid-chelating resin (10 ml/liter; Sigma-Aldrich). The reaction was initiated by adding NADPH to 100 μM and was immediately placed into the ESR spectrometer. DMPO-hydroxyl radical adduct formation was assayed for 10 min. Instrument settings were as follows: receiver gain, 1×10^6; modulation frequency, 100 kHz; microwave power, 40.14 mW; modulation amplitude, 1.0 G; and sweep rate, 1 G/s.

Leishmania amazonensis = assay: Leishmaniasis model, in vitro promastigotes, parasites/mL; assay type: cell-based; settings: for activity in first experiment: 1 and 0.1 mcM (ethanol 0.1 and 0.01%)
Description: The experiments were started using water as a solvent for the triarylmethanes (TPM, standing for triphenylmethane). However, water was not an effective solvent, so ethanol was substituted. Ethanol is toxic to leishmania, so a control group was tested with a higher ethanol concentration than that present on the TPM groups.
Each of FIGS. 4-7 has five or six groups with 50, 10, 1 and 0.1 mcM (micromolar) of TPMs (1, 2, 3 and 5) in ethanol, and two control groups: Ethanol 5% (50 mcM) and positive control.
The number of parasites was counted only after 48 hours. Again, an ethanol control at 0.1% was used.
The IC50 was calculated by the method described by Hills et al. (18) and Huber and Koella (19). Briefly, Hills proposed finding two concentrations, X1 and X2, such that the parasite density, Y1, at concentration X1 (and all lower concentrations) was more than half of the density found in the control, Y0, and that the parasite density, Y2, at concentration X2 (and all higher concentrations) was less than half of Y0. The IC50 was then found by linear extrapolation between X1 and X2: log(IC50)=log(X1)|[(Y1−Y0/2)/(Y1−Y2)][ log(X2)−log(X1)].
Compounds TPM 6 (MW=400.60), TPM 7 (MW=672.86), TPM 9 (MW=521.76) and TPM 10 (MW=662.95) were evaluated with the same methodology. They were tested using a maximum of 1% of ethanol in each treatment group. The ethanol control was also evaluated with the same concentration (1%).
The treatment groups were TPM 6 at a dosage of 0.05; 0.01; 0.005 and 0.001 mcM.

ang-2 mRNA = assay: Quantitative reverse transcription-PCR for ang-2 in bEnd.3 cells; assay type: cell-based, murine; settings: 10 μM, 6.5 hours
Description: bEnd.3 cells were seeded equally into six T-75 flasks and 24 hours later were treated with 0, 1, 5, 10, 15, and 20 μM concentrations of gentian violet (Sigma-Aldrich, no. G2039) in ethanol for 6.5 hours. RNA was extracted and purified using TRI reagent (Sigma-Aldrich, T9424) and measured using spectrophotometer (Perkin-Elmer UV/VIS, Wellesley, Mass.). RNA (1 μg) was used for DNase Amplification (Invitrogen, no. 18068-015, Carlsbad, Calif.) followed by first-strand synthesis for reverse transcription-PCR (Invitrogen SuperScript, no. 12371-019). 96-well Optical Reaction Plate (ABI PRISM, no. 128, Applied Biosystems, Foster City, Calif.) was used for the reverse transcription-PCR reaction. A measure of 2.5 μl of template, which had been diluted 1:10 in crosslinked water, was used in each well and the experiment was performed in triplicate. Ang pt2 (Applied Biosystems, Taqman Gene Expression Assay, Mm00545822_ml) and 18S (Applied Biosystems Taqman Gene Expression Assay, Hs99999901_sl) primers were used along with crosslinked molecular grade water (Cellgro, Mediatech, Inc., Herndon, Va.) and master mix (Applied Biosystems TaqMan Fast Universal PCR Master Mix (2^x)). The reaction was run on the 7900 Applied Biosystems Reader for Absolute Quantification for 96-well plates. C values were analyzed by ΔΔCt method, and the standard error of the mean was calculated (FIG. 3b). The same protocol was used for treatment with brilliant green (Sigma, no. B6756), except that the concentrations used were 0, 0.1, 0.25, 0.5, and 0.75 μM (FIG. 3a).

[10] = 48 hours, linear extrapolation method of Hills
[11] = summary table of experiments 1-4

CCN(CC)c1ccc(C(c2ccc(N(CC)CC)cc2)=c2ccc3c(c2)CCc2ccccc2[N+]=3CCCN(C)C)cc1 [TPM 2]
inhibition of HIF2a expression (HIF2a): around 90%
lethality to mice (T. brucei; 1 mg IV): killed the mice
decrease in parasitemia (T. brucei; IV, 100 μg, mouse model): 70%
cell toxicity to trypanosome toxicity [1]: favorable
IC50 ([2]; Plasmodium falciparum, D6; read-out: IC50 (nM) vs P. falciparum D6 (Chloroquine Sensitive)): ~2500 nM
IC50 ([3]; Plasmodium falciparum, DD2; read-out: IC50 (nM) vs P. falciparum Dd2 (Multidrug Resistant)): 826 nM
growth advantage by cytokines IL-6 and IGF1 ([4]; MM.1S cells): overcomes the growth advantage
combination with bortezomib or perifosine ([4]; myeloma cells): additive benefit in combination
growth inhibition ([4]; treated up to 72 hrs, between 6 uM to 10 μM): more than 80%
cell cycle profile (myeloma cells [5]; MM.1S cells): induces both cell cycle arrests as well as apoptosis
apoptosis by annexin V staining (myeloma cells [5]; similar concentrations (6 uM to 10 μM)): induced to undergo apoptosis
cleavage of procaspases (caspase 8, 9, 3 and PARP) (myeloma cells [6]; 0.5 μM to 10 μM, about 48 hrs): extensively cleaved
phos-AKT level (myeloma cells [6]; MM.1S): not significantly reduced
phos-p53 and GADD45 levels (myeloma cells [6]; MM.1S): upregulaed
cell growth [7]: induced cell growth inhibition
cell killing of CD38 positive population [8]: very significant cell killing
radical formation with superoxide (ESR) [9]: appear to form a radical by reacting with superoxide

CCN(CC)c1ccc(C(=C2C=C3CCc4ccccc4N(CCCN(C)C)C3=CC2)c2ccc(N(CC)CC)cc2)cc1 [TPM 2]
number of parasite/ml of blood versus control (T. brucei; s.c. 1 mg/mice/day from day of infection): slightly less
survival of infected mice (T. brucei; s.c. 1 mg/mice/day from day of infection, 5,000 parasites/mouse): died at day 4
activity in first experiment (Leishmania amazonensis): have shown activity
growth inhibition (Leishmania amazonensis; 1 mcM, 48 hours): 72%
IC50 (Leishmania amazonensis; [10]): ~600 nM
IC50 (Leishmania amazonensis; [11]): 600 nM

CCN(CC)CCCC(C)Nc1ccnc2cc(Cl)ccc12 (stereo not drawn) [Chloroquine, reference compound]
IC50 ([2]; Plasmodium falciparum, D6, read-out: IC50 (nM) vs P. falciparum D6 (Chloroquine Sensitive)): 7.9 nM
IC50 ([3]; Plasmodium falciparum, DD2, read-out: IC50 (nM) vs P. falciparum Dd2 (Multidrug Resistant)): 140 nM

CCN(CC)c1ccc(C(=C2C=CC3C(C[C@H](N)C(=O)O)=CNC3=C2)c2ccc(N(CC)CC)cc2)cc1 (stereo partly drawn) [TPM 5]
activity in first experiment (Leishmania amazonensis): did not

c1ccc([I+]c2ccccc2)cc1 [DPI, diphenyliodonium]
decrease in ang-2 expression compared to control (ang-2 mRNA): 80%

CCN(CC)c1ccc(C(=C2C=CC(C)C=C2)c2ccc(N(CC)CC)cc2)cc1 (stereo not drawn) [TPM 6]
IC50 ([2]; D6; read-out: IC50 (nM) vs P. falciparum D6 (Chloroquine Sensitive)): 61.7 nM
active / inactive in the malaria assay ([2]; summary over D6 and Dd2 strains): active
IC50 ([3]; Dd2; read-out: IC50 (nM) vs P. falciparum Dd2 (Multidrug Resistant)): 48.9 nM
relative activity among compounds tested (Leishmania amazonensis): most active compound
growth inhibition (Leishmania amazonensis; 0.01 mcM, 48 hours): 41%
growth inhibition (Leishmania amazonensis; 0.05 mcM, 48 hours): 59%
growth inhibition (Leishmania amazonensis; 0.1 mcM, 48 hours): 98%
growth inhibition (Leishmania amazonensis; 0.5 mcM, 48 hours): 98%
growth inhibition (Leishmania amazonensis; 1 mcM, 48 hours): 100%
growth inhibition (Leishmania amazonensis; 5 mcM, 48 hours): 100%
IC50 (Leishmania amazonensis; [10]): ~20 nM
IC50 (Leishmania amazonensis; [11]): 20 nM
